≈ marks a conversion by molar mass, not a printed value. Read-outs that look alike come from different tables or passages of the source.
Experiments:
P. aeruginosa 43 = assay: In vitro antibacterial activity test (broth microdilution); format: cell-based; details: Pseudomonas aeruginosa; P. aeruginosa 43; read-out: MIC90
How it was run: (§1)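 Clinical isolates; CLSI broth microdilution; MIC90 in ug/mL; final compound range 0.0626–128 ug/mL; DMSO 2.5% (V/V) final.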

K. pneumoniae 2011E = assay: as above; format: cell-based; details: Klebsiella pneumoniae, 2011E, K. pneumoniae 2011E; read-out: MIC90
How it was run: as §1

A. baumannii 46 = assay: as above; format: cell-based; details: Acinetobacter baumannii; A. baumannii 46; read-out: MIC90
How it was run: as §1

P. aeruginosa 40 = assay: as above; format: cell-based; details: Pseudomonas aeruginosa, 40, P. aeruginosa 40; read-out: MIC90
How it was run: as §1

K. pneumoniae β9 = assay: as above; format: cell-based; details: Klebsiella pneumoniae, K. pneumoniae β9; read-out: MIC90
How it was run: as §1

P. aeruginosa 1912E = assay: as above; format: cell-based
How it was run: as §1

A. baumannii 49 = assay: as above; format: cell-based; details: Acinetobacter baumannii; A. baumannii 49; read-out: MIC90
How it was run: as §1

E. cloacae β19 = assay: as above; format: cell-based
How it was run: as §1

M. catarrhalis 2524 = assay: as above; format: cell-based; details: M. catarrhalis 2524
How it was run: as §1

K. pneumoniae β11 = assay: as above; format: cell-based; details: Klebsiella pneumoniae; K. pneumoniae β11; read-out: MIC90
How it was run: as §1

P. aeruginosa 6065Y = assay: as above; format: cell-based
How it was run: as §1

[1] = tested on: A. calcoaceticus ATCC15473; assay: as above; format: cell-based; details: Acinetobacter calcoaceticus; A. calcoaceticus ATCC15473; read-out: MIC90
How it was run: as §1

A. baumannii 52 = assay: as above; format: cell-based; details: Acinetobacter baumannii; A. baumannii 52; read-out: MIC90
How it was run: as §1

E. coli β4 = assay: as above; format: cell-based; details: Escherichia coli, read-out: MIC90
How it was run: as §1

K. pneumoniae β14 = assay: as above; format: cell-based; details: Klebsiella pneumoniae, read-out: MIC90
How it was run: as §1

P. aeruginosa 37 = assay: as above; format: cell-based; details: Pseudomonas aeruginosa, 37, P. aeruginosa 37; read-out: MIC90
How it was run: as §1

E. coli AG100 = assay: as above; format: cell-based; details: Escherichia coli, AG100, E. coli AG100; read-out: MIC90
How it was run: as §1

K. pneumoniae β13 = assay: as above; format: cell-based; details: K. pneumoniae β13
How it was run: as §1

K. pneumoniae β10 = assay: as above; format: cell-based; details: Klebsiella pneumoniae; K. pneumoniae β10; read-out: MIC90
How it was run: as §1

[2] = Pharmacokinetics study in rat, IV; format: in vivo, SD rat; details: Rat (10 mg/kg) single IV; for AUC / Cmax / Tmax / clearance / half-life / Vd: SD, plasma; for Vd: read-out: Vss
Experimental: Test animals: 9 week old SD rat, weight 290˜310 g; 3 rats/sample time point
Lab conditions: Temperature of 21±2° C.; humidity of 50±20%
Administration method: Injecting test compound solution through tail vein (IV)
Test method: Blood samples were taken from jugular vein at a predetermined time period for 24 hours after administration, plasma was separated, and quantified by using LC-MS/MS.

19 clinical isolates = assay: In vitro antibacterial activity test, panel of 19 clinical isolates as a whole; format: cell-based; details: effect of a siderophore group, Table 1
Experimental: To evaluate antibacterial activity of each of the compounds of Examples 1 to 68, in vitro antibacterial activity test was performed.
The in vitro antibacterial activity was evaluated by measuring MIC90 (ug/mL) of each of the compounds of Examples 1 to 68, which is defined as the lowest concentration of an antibiotic that will inhibit the visible growth of 90% of microorganisms after incubation as compared with a control group to which the antibiotic is not treated. MIC90 values were measured by the broth microdilution method developed by the Clinical and Laboratory Standards Institute (CLSI) (see CLSI M7-A5, Methods for Dilution Antimicrobial Susceptibility Test for Bacteria that Grow Aerobically-Fifth Edition (2000): CLSI, Villanova, Pa.).
In vitro antibacterial activity was measured with respect to the following 19 clinical isolates: M. catarrhalis; P. aeruginosa (5 strains); K. pneumoniae (6 strains); A. baumannii (3 strains); E. coli (2 strains); A. calcoaceticus; and E. cloacae.
Test compounds each (the cephalosporin derivative compounds prepared in Examples 1 to 68) were dissolved in DMSO at the concentration of 10,240 ug/mL, were diluted by two fold with DMSO, and then were diluted by twenty fold with sterilized distilled water. The final concentration in the antibacterial activity test was in the range of […] to 128 ug/mL, and the final concentration of DMSO used as an adjuvant was 2.5% (V/V).

[3] = tested on: K. pneumoniae (38 clinical isolates); assay: Antibacterial activity on representative drug-resistance bacteria: number of clinical isolates per MIC value; format: cell-based; details: K. pneumomiae (N = 38)
[4] = tested on: P. aeruginosa (16 clinical isolates); assay: as above; format: cell-based; details: P. aeruginosa (N = 16)
[5] = tested on: A. baumannii (6 clinical isolates); assay: as above; format: cell-based; details: A. baumanni (N = 6)

`C[C@H](O/N=C(\C(=O)N[C@@H]1C(=O)N2C(C(=O)[O-])=C(C[n+]3cnc(N)c(NCCNC(=O)c4cc(=O)c(O)cn4O)c3)CSC12)c1nc(N)sc1Cl)C(=O)O` (stereo partly shown) [Compound 4] showed an MIC90 (P. aeruginosa 43) of 1 µg/mL (≈ 1.26 µM), an MIC90 (K. pneumoniae 2011E) of 2 µg/mL (≈ 2.52 µM) and an MIC90 (A. baumannii 46) of 64 µg/mL (≈ 80.6 µM). It also gave an MIC90 (P. aeruginosa 40) of 1 µg/mL (≈ 1.26 µM), an MIC90 (K. pneumoniae β9) of 0.5 µg/mL (≈ 0.63 µM) and an MIC90 (P. aeruginosa 1912E; Pseudomonas aeruginosa, 1912E, read-out: MIC90) of 0.5 µg/mL (≈ 0.63 µM). The MIC90 (A. baumannii 49) was 8 µg/mL (≈ 10.1 µM), the MIC90 (E. cloacae β19; Enterobacter cloacae, read-out: MIC90) was 1 µg/mL (≈ 1.26 µM) and the MIC90 (M. catarrhalis 2524; Moraxella catarrhalis, read-out: MIC90) was 0.25 µg/mL (≈ 0.315 µM). It also gave an MIC90 (K. pneumoniae β11) of 4 µg/mL (≈ 5.04 µM), an MIC90 (P. aeruginosa 6065Y; Pseudomonas aeruginosa, read-out: MIC90) of 0.5 µg/mL (≈ 0.63 µM) and an MIC90 [1] of 2 µg/mL (≈ 2.52 µM). The MIC90 (A. baumannii 52) was 4 µg/mL (≈ 5.04 µM), the MIC90 (E. coli β4) was 0.5 µg/mL (≈ 0.63 µM) and the MIC90 (K. pneumoniae β14) was 32 µg/mL (≈ 40.3 µM). The MIC90 (P. aeruginosa 37) was 0.5 µg/mL (≈ 0.63 µM), the MIC90 (E. coli AG100) was 0.125 µg/mL (≈ 0.157 µM) and the MIC90 (K. pneumoniae β13; Klebsiella pneumoniae, read-out: MIC90) was 1 µg/mL (≈ 1.26 µM). For the same compound, the MIC90 (K. pneumoniae β10) was 0.5 µg/mL (≈ 0.63 µM), the AUCnorm [2] was 4.03 kg·h/L and the “Cmax,norm” value [2] was 7.58 kg/L. The AUC [2] was 40300 ng·h/mL, the Cmax [2] was 75.8 µg/mL and the Tmax [2] was 1.2 min. For the same compound, the clearance [2] was 4.17 mL/min/kg, the half-life [2] was 37.2 min and the Vd [2] was 0.2 L/kg. The “antibacterial activity (in words)” value (19 clinical isolates) was “significantly improved”, the “number of clinical isolates that showed the respective MIC value” (“number” for short) ([3]; MIC 0.25 ug/mL) was 1 and the “number” value ([3]; MIC 1 ug/mL) was 1. For the same compound, the “number” value ([3]; MIC 2 ug/mL) was 3, the “number” value ([3]; MIC 4 ug/mL) was 2 and the “number” value ([3]; MIC 8 ug/mL) was 3. For the same compound, the “number” value ([3]; MIC 16 ug/mL) was 2, the “number” value ([3]; MIC >16 ug/mL) was 26 and the “number” value ([4]; MIC 0.0625 ug/mL) was 1. The “number” value ([4]; MIC 0.25 ug/mL) was 5, the “number” value ([4]; MIC 0.5 ug/mL) was 2 and the “number” value ([4]; MIC 1 ug/mL) was 1. The “number” value ([4]; MIC 2 ug/mL) was 2, the “number” value ([4]; MIC 4 ug/mL) was 1 and the “number” value ([4]; MIC 8 ug/mL) was 1. For the same compound, the “number” value ([4]; MIC >16 ug/mL) was 3, the “number” value ([5]; MIC 0.125 ug/mL) was 1 and the “number” value ([5]; MIC 2 ug/mL) was 2. The “number” value ([5]; MIC >16 ug/mL) was 3.

Compound `CC(C)(O/N=C(\C(=O)N[C@@H]1C(=O)N2C(C(=O)[O-])=C(/C=C/C[n+]3cnc(N)c(NCCNC(=O)c4cc(=O)c(O)cn4O)c3)CSC12)c1csc(N)n1)C(=O)O` (stereo partly shown) [Compound 8] has an MIC90 (P. aeruginosa 43) of 1 µg/mL (≈ 1.25 µM), an MIC90 (K. pneumoniae 2011E) of 1 µg/mL (≈ 1.25 µM) and an MIC90 (A. baumannii 46) of 8 µg/mL (≈ 10 µM). For the same compound, the MIC90 (P. aeruginosa 40) was 0.5 µg/mL (≈ 0.625 µM), the MIC90 (K. pneumoniae β9) was 0.5 µg/mL (≈ 0.625 µM) and the MIC90 (P. aeruginosa 1912E) was 1 µg/mL (≈ 1.25 µM). For the same compound, the MIC90 (A. baumannii 49) was > 128 µg/mL, the MIC90 (E. cloacae β19) was 32 µg/mL (≈ 40 µM) and the MIC90 (M. catarrhalis 2524) was 0.5 µg/mL (≈ 0.625 µM). The MIC90 (K. pneumoniae β11) was 32 µg/mL (≈ 40 µM), the MIC90 (P. aeruginosa 6065Y) was 4 µg/mL (≈ 5 µM) and the MIC90 [1] was 2 µg/mL (≈ 2.5 µM). For the same compound, the MIC90 (A. baumannii 52) was > 128 µg/mL, the MIC90 (E. coli β4) was 0.5 µg/mL (≈ 0.625 µM) and the MIC90 (K. pneumoniae β14) was 8 µg/mL (≈ 10 µM). The MIC90 (P. aeruginosa 37) was 1 µg/mL (≈ 1.25 µM), the MIC90 (E. coli AG100) was 0.0625 µg/mL (≈ 0.0781 µM) and the MIC90 (K. pneumoniae β13) was 0.25 µg/mL (≈ 0.313 µM). The MIC90 (K. pneumoniae β10) was < 0.0625 µg/mL, the AUCnorm [2] was 5.46 kg·h/L and the “Cmax,norm” value [2] was 19.61 kg/L. It also gave an AUC [2] of 54600 ng·h/mL, a Cmax [2] of 196 µg/mL and a Tmax [2] of 1.2 min. The clearance [2] was 3 mL/min/kg, the half-life [2] was 52.2 min and the Vd [2] was 0.09 L/kg. For the same compound, the “antibacterial activity (in words)” value (19 clinical isolates) was “significantly improved”, the “number” value ([3]; MIC 0.25 ug/mL) was 1 and the “number” value ([3]; MIC 8 ug/mL) was 1. For the same compound, the “number” value ([3]; MIC <0.0625 ug/mL) was 1, the “number” value ([3]; MIC >16 ug/mL) was 35 and the “number” value ([4]; MIC 0.125 ug/mL) was 2. The “number” value ([4]; MIC 0.25 ug/mL) was 1, the “number” value ([4]; MIC 0.5 ug/mL) was 2 and the “number” value ([4]; MIC 1 ug/mL) was 2. For the same compound, the “number” value ([4]; MIC 2 ug/mL) was 2, the “number” value ([4]; MIC 4 ug/mL) was 3 and the “number” value ([4]; MIC 8 ug/mL) was 1. The “number” value ([4]; MIC >16 ug/mL) was 3, the “number” value ([5]; MIC 0.5 ug/mL) was 1 and the “number” value ([5]; MIC >16 ug/mL) was 5.
